Laboratory results taken from PubChem BioAssay AID248 (DTP/NCI, 2004).
Several values for one entry are separate records, joined by “and”; a condition that tells them apart may be missing. Equal values may be shown once. Inconclusive results and toxic doses are left out.

System: L1210 leukemia ip in BDF1 mice, survival T/C
Assay: NCI In Vivo Anticancer Drug Screen. Data for tumor model L1210 Leukemia (intraperitoneal) in B6D2F1 (BDF1) mice
Conditions: endpoint: mean survival time, higher = longer survival
Method in brief: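 Value reflects the ratio of survival in compound-treated mice to survival in vehicle-treated controls, with both groups carrying the same transplanted tumor.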

[1] = dose: 100.0 mg/kg/injection, schedule: Q01DX009 (ip), vehicle: saline with Tween-80
[2] = dose: 200.0 mg/kg/injection, schedule: Q01DX009 (ip), vehicle: saline with Tween-80
[3] = dose: 400.0 mg/kg/injection, schedule: Q01DX009 (ip), vehicle: saline with Tween-80
[4] = dose: 25.0 mg/kg/injection, schedule: Q04DX003 (ip), vehicle: saline
[5] = dose: 50.0 mg/kg/injection, schedule: Q04DX003 (ip), vehicle: saline
[6] = dose: 100.0 mg/kg/injection, schedule: Q04DX003 (ip), vehicle: saline with Tween-80
[7] = dose: 200.0 mg/kg/injection, schedule: Q04DX003 (ip), vehicle: saline with Tween-80
[8] = dose: 400.0 mg/kg/injection, schedule: Q04DX003 (ip), vehicle: saline with Tween-80
[9] = dose: 50.0 mg/kg/injection, schedule: Q01DX001 (ip), vehicle: carboxymethylcellulose (CMC)
[10] = dose: 100.0 mg/kg/injection, schedule: Q01DX009 (ip), vehicle: Klucel (hydroxypropylcellulose) (HPC)
[11] = dose: 100.0 mg/kg/injection, schedule: Q04DX003 (ip), vehicle: Klucel (hydroxypropylcellulose) (HPC)
[12] = dose: 200.0 mg/kg/injection, schedule: Q01DX009 (ip), vehicle: Klucel (hydroxypropylcellulose) (HPC)
[13] = dose: 200.0 mg/kg/injection, schedule: Q04DX003 (ip), vehicle: Klucel (hydroxypropylcellulose) (HPC)
[14] = dose: 400.0 mg/kg/injection, schedule: Q01DX009 (ip), vehicle: Klucel (hydroxypropylcellulose) (HPC)
[15] = dose: 400.0 mg/kg/injection, schedule: Q04DX003 (ip), vehicle: Klucel (hydroxypropylcellulose) (HPC)
[16] = dose: 100.0 mg/kg/injection, schedule: Q01DX005 (ip), vehicle: saline
[17] = dose: 200.0 mg/kg/injection, schedule: Q01DX005 (ip), vehicle: saline

`O=S1(=O)CC(Br)C1` was tested, and the T/C (dose: 12.5 mg/kg/injection, schedule: Q04DX002 (ip), vehicle: Klucel (hydroxypropylcellulose) (HPC)) was 86 % of control, the T/C (dose: 25.0 mg/kg/injection, schedule: Q01DX009 (ip), vehicle: Klucel (hydroxypropylcellulose) (HPC)) was 96 % of control and the T/C (dose: 25.0 mg/kg/injection, schedule: Q04DX002 (ip), vehicle: Klucel (hydroxypropylcellulose) (HPC)) was 93 % of control. The T/C (dose: 50.0 mg/kg/injection, schedule: Q01DX009 (ip), vehicle: Klucel (hydroxypropylcellulose) (HPC)) was 96 % of control and the T/C (dose: 50.0 mg/kg/injection, schedule: Q04DX002 (ip), vehicle: Klucel (hydroxypropylcellulose) (HPC)) was 109 % of control.

`COc1cc(C(=O)O)cc(OC)c1OC(C)=O` was tested, and the T/C [1] was 104 % of control, the T/C [2] was 98 % of control and the T/C [3] was 88 % of control.

For `C1CCN(CCC2CCNCC2)CC1`, the T/C [4] was 97 % of control, the T/C [5] was 97 % of control and the T/C (dose: 100.0 mg/kg/injection, schedule: Q04DX003 (ip), vehicle: saline) was 99 % of control and 100 % of control.

`Cc1c(CBr)c2ccccc2[nH]c1=O` was tested, and the T/C (dose: 100.0 mg/kg/injection, schedule: Q01DX001 (ip), vehicle: other) was 97 % of control and the T/C (dose: 200.0 mg/kg/injection, schedule: Q01DX001 (ip), vehicle: other) was 108 % of control.

With `CCOC(=S)c1ccc(NS(=O)(=O)c2ccc(C)cc2)cc1` the T/C (dose: 100.0 mg/kg/injection, schedule: Q01DX001 (ip), vehicle: saline with Tween-80) was 100 % of control, the T/C (dose: 200.0 mg/kg/injection, schedule: Q01DX001 (ip), vehicle: saline with Tween-80) was 107 % of control and the T/C (dose: 400.0 mg/kg/injection, schedule: Q01DX001 (ip), vehicle: saline with Tween-80) was 102 % of control.

`C1CCCC2(CCC1)OCCO2` was tested, and the T/C [1] was 93 % of control, the T/C [6] was 113 % of control and the T/C [2] was 102 % of control. The T/C [7] was 108 % of control, the T/C [3] was 101 % of control and the T/C [8] was 94 % of control.

In the case of `O=[N+]([O-])C=C([SH2+])[SH2+].O=[N+]([O-])C=C([SH2+])[SH2+].[Co+3].c1ccc(C[P+](c2ccccc2)(c2ccccc2)c2ccccc2)cc1`, the T/C (dose: 75.0 mg/kg/injection, schedule: Q04DX003 (ip), vehicle: saline) is reported as 93 % of control and the T/C (dose: 150.0 mg/kg/injection, schedule: Q04DX003 (ip), vehicle: saline) is reported as 93 % of control.

In the case of `[N-]=[N+]=C1N=CN=C1c1ncn[nH]1`, the T/C (dose: 6.0 mg/kg/injection, schedule: Q01DX015 (ip), vehicle: carboxymethylcellulose (CMC)) is reported as 120 % of control, the T/C [9] is reported as 115 % of control and the T/C (dose: 55.0 mg/kg/injection, schedule: Q01DX015 (ip), vehicle: carboxymethylcellulose (CMC)) is reported as 172 % of control.

In the case of `O=C(/C=C\c1ccc2c(c1)OCO2)/C=C/c1ccc2c(c1)OCO2`, the T/C [10] is reported as 97 % of control, the T/C [11] is reported as 92 % of control and the T/C [6] is reported as 97 % of control. The T/C [12] was 88 % of control, the T/C [13] was 101 % of control and the T/C [7] was 94 % of control. The T/C [14] was 87 % of control, the T/C [15] was 94 % of control and the T/C [8] was 90 % of control.

With `OC1c2ccccc2C(O)C2C3C=CC(C3)C12` (configuration not stated) the T/C [9] was 87 % of control, the T/C (dose: 100.0 mg/kg/injection, schedule: Q01DX001 (ip), vehicle: carboxymethylcellulose (CMC)) was 97 % of control and the T/C (dose: 200.0 mg/kg/injection, schedule: Q01DX001 (ip), vehicle: carboxymethylcellulose (CMC)) was 100 % of control. The T/C (dose: 400.0 mg/kg/injection, schedule: Q01DX001 (ip), vehicle: carboxymethylcellulose (CMC)) was 97 % of control.

With `O=C(/C=C\c1ccc(O)cc1)c1ccccc1` the T/C [10] was 97 % of control, the T/C [11] was 89 % of control and the T/C [12] was 106 % of control. For the same molecule, the T/C [13] was 96 % of control and the T/C [14] was 101 % of control.

`NC(=O)c1n[nH]c(C2OCC(O)C2O)c1I` (configuration not stated) was tested, and the T/C [16] was 100 % of control and the T/C [17] was 108 % of control.

In the case of `CC(=O)c1cc(C)[nH]c1C`, the T/C (dose: 100.0 mg/kg/injection, schedule: Q01DX009 (ip), vehicle: saline sonified) is reported as 100 % of control, the T/C [11] is reported as 89 % of control and the T/C [13] is reported as 106 % of control. The T/C (dose: 400.0 mg/kg/injection, schedule: Q01DX009 (ip), vehicle: saline sonified) was 89 % of control.

With `N#C/C(=C/c1ccnc2ccccc12)c1ccccc1` the T/C [11] was 101 % of control, the T/C [13] was 101 % of control and the T/C [15] was 95 % of control.

`CCCC(=O)NC1=C(N2CC2)C(=O)C(NC(=O)CCC)=C(N2CC2)C1=O` was tested, and the T/C (dose: 0.13 mg/kg/injection, schedule: Q01DX010 (oral), vehicle: saline) was 104 % of control, the T/C (dose: 0.25 mg/kg/injection, schedule: Q01DX010 (oral), vehicle: saline) was 110 % of control and the T/C (dose: 0.5 mg/kg/injection, schedule: Q01DX010 (oral), vehicle: saline) was 116 % of control. For the same molecule, the T/C (dose: 1.0 mg/kg/injection, schedule: Q01DX010 (oral), vehicle: saline) was 116 % of control, the T/C (dose: 1.0 mg/kg/injection, schedule: Q01DX Z (ip), vehicle: saline) was 124 % of control and the T/C (dose: 2.0 mg/kg/injection, schedule: Q01DX Z (ip), vehicle: saline) was 166 % of control and 193 % of control. The T/C (dose: 4.0 mg/kg/injection, schedule: Q01DX010 (oral), vehicle: saline) was 154 % of control and the T/C (dose: 8.0 mg/kg/injection, schedule: Q01DX Z (ip), vehicle: saline) was 100 % of control.

`O=[N+]([O-])c1cccc(-n2cccc2)c1` was tested, and the T/C (dose: 100.0 mg/kg/injection, schedule: Q01DX001 (ip), vehicle: steriod suspending solution) was 101 % of control, the T/C (dose: 200.0 mg/kg/injection, schedule: Q01DX001 (ip), vehicle: steriod suspending solution) was 103 % of control and the T/C (dose: 400.0 mg/kg/injection, schedule: Q01DX001 (ip), vehicle: steriod suspending solution) was 97 % of control.

In the case of `O=C(CC(O)(C(F)(F)F)C(F)(F)F)c1ccc(Br)cc1`, the T/C (dose: 100.0 mg/kg/injection, schedule: Q04DX003 (ip), vehicle: other) is reported as 98 % of control, the T/C (dose: 200.0 mg/kg/injection, schedule: Q04DX003 (ip), vehicle: other) is reported as 106 % of control and the T/C (dose: 400.0 mg/kg/injection, schedule: Q04DX003 (ip), vehicle: other) is reported as 93 % of control.

In the case of `Nc1ccn(C2OC(CO)C(O)C2O)c(=NC(CO)C(=O)O)n1` (configuration not stated), the T/C [16] is reported as 117 % of control and the T/C [17] is reported as 120 % of control.

In the case of `NNC(=S)Nc1cccc(Cl)c1`, the T/C (dose: 75.0 mg/kg/injection, schedule: Q01DX001 (ip), vehicle: saline) is reported as 103 % of control and the T/C (dose: 150.0 mg/kg/injection, schedule: Q01DX001 (ip), vehicle: saline) is reported as 102 % of control.

In the case of `O=C(O)c1ccc(N=NSc2ncnc3nc[nH]c23)cc1O`, the T/C (dose: 2.5 mg/kg/injection, schedule: Q01DX Z (ip), vehicle: carboxymethylcellulose (CMC)) is reported as 150 % of control, the T/C (dose: 5.0 mg/kg/injection, schedule: Q01DX Z (ip), vehicle: carboxymethylcellulose (CMC)) is reported as 116 % of control and the T/C (dose: 10.0 mg/kg/injection, schedule: Q01DX Z (ip), vehicle: carboxymethylcellulose (CMC)) is reported as 116 % of control. For the same molecule, the T/C (dose: 20.0 mg/kg/injection, schedule: Q01DX Z (ip), vehicle: carboxymethylcellulose (CMC)) was 107 % of control and the T/C (dose: 40.0 mg/kg/injection, schedule: Q01DX015 (ip), vehicle: carboxymethylcellulose (CMC)) was 88 % of control.

With `O=C(OCC1CCN2CCCC12)c1ccccc1` (configuration not stated) the T/C (dose: 12.5 mg/kg/injection, schedule: Q04DX003 (ip), vehicle: saline) was 104 % of control, the T/C [4] was 110 % of control and the T/C [5] was 102 % of control.

In the case of `CCN(CC)c1ccc(N)cc1`, the T/C (dose: 6.25 mg/kg/injection, schedule: Q01DX009 (ip), vehicle: saline with Tween-80) is reported as 112 % of control, the T/C (dose: 12.5 mg/kg/injection, schedule: Q01DX009 (ip), vehicle: saline with Tween-80) is reported as 102 % of control and the T/C (dose: 12.5 mg/kg/injection, schedule: Q04DX003 (ip), vehicle: saline with Tween-80) is reported as 100 % of control. The T/C (dose: 25.0 mg/kg/injection, schedule: Q01DX009 (ip), vehicle: saline with Tween-80) was 104 % of control and the T/C (dose: 25.0 mg/kg/injection, schedule: Q04DX003 (ip), vehicle: saline with Tween-80) was 94 % of control.

For `CCOC(=O)C(=O)C(C#N)c1cccc2ccccc12` (configuration not stated), the T/C [11] was 100 % of control and the T/C [13] was 96 % of control.
